The text below walks through data of patent publication US5599789A, “Method for the treatment of tumours and sarcomas” (Amrad Corporation Limited, priority 1991, dated 1997).

For data set [1], the system named is Ewing's Sarcoma cell line Cu-1. Briefly: Colony formation in semi-solid agar cultures, Cu-1 cells. Format: cell-based, human. As to conditions: Cu-1, 10,000 cells, day 18. The procedure:
(§1) Tumour cells obtained from biopsy and bone marrow specimens from patients with Ewing's Sarcoma were used in these studies. Approval for this project has been obtained from the Ethics Committee of the Royal Children's Hospital.
(§2) Single cell suspensions of tumour cells were obtained by mechanical disruption with an 18G or 21G needle or by pipetting, followed by incubation with dispase II (Boehringer) at a concentration of 1.2 units per ml for 10 minutes at 37° C. Prior to the addition to agar-medium the cells were vortexed gently to prevent clumping.
(§3) Clonal cell lines were grown in Iscove's Modified Dulbecco's Medium (IMDM) supplemented with 10% v/v foetal calf serum (FCS; CSL Limited, Melbourne, Australia) and were passaged either weekly or twice weekly. The characteristics of the Ewing Sarcoma cell lines used herein as described below:
(§4) Cell lines derived from the above primary cell lines (Al and Cu) are identified by an Arabic numeral (e.g. Al-1, Al-5, Al-8 or Cu-1).
(§5) The tumour cells were immobilised in 0.3% w/v agar containing Iscove's Modified Dulbecco's Medium (IMDM) and 10% v/v FCS. […] Cultures were scored for the presence of colonies (>40 cells) or clusters (<40 cells). The number of cells plated per culture ranged from 500 to 10,000 per ml. Colonies were counted on an Olympus dissecting microscope.
(§6) IL-1, IL-3, IL-4, IL-6, M-CSF, G-CSF, GM-CSF, Stem Cell Factor (SCF), TNFα, TGFα, TGFβ, EGF, aFGF, bFGF, NGF, IGF I, IGF II, PDGF and IFN-γ.
(§7) The recombinant human leukaemia inhibitory factor (LIF) was obtained from AMRAD Corporation Limited, Melbourne, Australia.

Data set [2] deals with Ewing's Sarcoma cell line Al-5. The data set is described as follows: Colony formation in semi-solid agar cultures, Al-5 cells. Format: cell-based, human. The note with it: Al-5, 1,000 cells, day 18. The method, then: as §1, §2, §3, §4, §5, §6, §7
A short description of data set [3]: Toxicity of hLIF in mice, daily subcutaneous injections. Format: in vivo. The method, then: A number of preliminary experiments were performed to determine the appropriate daily dose of hLIF in mice. Mice were injected with high doses of hLIF (100 microgram per mouse). These studies led to death of the mice within 2 weeks of daily subcutaneous injections of LIF. Studies using lower doses (5-20 micrograms per mouse) of hLIF, led to survival of most of the mice for over 20 days. Retro-orbital bleeds were performed on the first 3 days to determine platelet counts. In all mice subcutaneously injected daily with 1 microgram or more of hLIF, the platelet count rose in the first 3 days (26-60% increment on baseline pretreatment levels). In this study an amount of 20 μg of hLIF was chosen to be subcutaneously injected daily into SCID mice bearing Ewing's Sarcoma tumours.

Data set [4] relates to Ewing's Sarcoma cell line Al-8. The data set is described as follows: Colony formation in semi-solid agar cultures, Al-8 cells. Format: cell-based, human. As to conditions: Al-8, 1,000 cells, day 18. The method, then:
as §1, §2, §3, §4, §5, §6, §7

[5] abbreviates: stimulus 100 ng, mean of duplicate colony counts.

In the case of “LIF: recombinant human leukaemia inhibitory factor (E. coli derived) from AMRAD Corporation Limited”, the Colonies/Cultures in data set [1] (stimulus 0.01 ng) turned out to be 542; in data set [1] (stimulus 0.1 ng) it was 430; in data set [1] (stimulus 1 ng), 192; in data set [1] (stimulus 10 ng), 97; in data set [1] (setting [5]), 125; in data set [2] (stimulus 0.01 ng), 47. Also, the Colonies/Cultures was 27 in data set [2] (stimulus 0.1 ng); 25 in data set [2] (stimulus 1 ng); 18 in data set [2] (stimulus 10 ng); 2 in data set [2] (setting [5]); 68 in data set [4] (stimulus 0.01 ng); 29 in data set [4] (stimulus 0.1 ng). Also, the Colonies/Cultures was found to be 23 in data set [4] (stimulus 1 ng), 6 in data set [4] (stimulus 10 ng) and 3 in data set [4] (setting [5]). Besides, the “Platelet count rise, increment on baseline pretreatment levels” value in data set [3] (1 microgram or more daily subcutaneously, first 3 days) is recorded as 26-60%. Also, the “Survival of most of the mice” value in data set [3] (5-20 micrograms per mouse) is recorded as “over 20 days”. Also, the “Time to death of the mice” value in data set [3] (100 microgram per mouse, daily subcutaneous injections) was at most 2 weeks.
